Experimental data: patent US5705190A, “Controlled release formulation for poorly soluble basic drugs” (Abbott Laboratories, priority 1995, dated 1998)
Where two headings read alike, the source gives them in different places.

Columns and labels:
[1] = cited from earlier work
[2] = in vivo

| Molecule | water solubility (1 part of drug in the number of parts of water) ([1]; water) | other results |
| --- | --- | --- |
| CCC(=O)O[C@@H]1CC(=O)O[C@H](C)C/C=C/C=C/[C@H](O)[C@H](C)C[C@H](CC=O)[C@H](O[C@@H]2O[C@H](C)[C@@H](O[C@H]3C[C@@](C)(O)[C@@H](OC(=O)CC)[C@H](C)O3)[C@H](N(C)C)[C@H]2O)[C@H]1OC [midecamycin] | – | water solubility in words ([1]; water): very slightly soluble in water |
| CC[C@H]1OC(=O)[C@H](C)[C@@H](O[C@H]2C[C@@](C)(OC)[C@@H](O)[C@H](C)O2)[C@H](C)[C@@H](O[C@@H]2O[C@H](C)C[C@H](N(C)C)[C@H]2O)[C@](C)(O)C[C@@H](C)C(=O)[C@H](C)[C@@H](O)[C@]1(C)O [erythromycin] | 1,000 parts of water | reproducibly bioavailable controlled release formulations [2]: not possible |
| CO[C@@H]1[C@@H](O[C@@H]2O[C@H](C)[C@@H](O[C@H]3C[C@@](C)(O)[C@@H](OC(=O)CC(C)C)[C@H](C)O3)[C@H](N(C)C)[C@H]2O)[C@@H](CC=O)C[C@@H](C)[C@@H](O)/C=C/C=C/C[C@@H](C)OC(=O)C[C@H]1OC(C)=O [josamycin] | 1,000-10,000 parts of water | – |
| kitasamycin | 1,000-10,000 parts of water | – |
| CC1Cc2ccccc2N1NC(=O)c1ccc(Cl)c(S(N)(=O)=O)c1 (stereo not drawn) [indapamide] | more than 10,000 parts of water | – |
| CC[C@H]1OC(=O)[C@H](C)[C@@H](O[C@H]2C[C@@](C)(OC)[C@@H](O)[C@H](C)O2)[C@H](C)[C@@H](O[C@@H]2O[C@H](C)C[C@H](N(C)C)[C@H]2O)[C@](C)(OC)C[C@@H](C)C(=O)[C@H](C)[C@@H](O)[C@]1(C)O [clarithromycin] | – | water solubility (1 part of drug in the number of parts of water) ([1]; 1 part drug in x parts water, a higher number is a lower solubility): ~1,000 parts of water; solubility in the stomach ([1]; pH 1.2): very soluble; solubility in the upper region of the small intestine ([1]; pH 5.0): fairly soluble; solubility in the lower intestine ([1]; pH 6 to 8): solubility decreases |
| Cc1ncc([N+](=O)[O-])n1CCO [metronidazole] | 100-1,000 parts of water | – |
| CC[C@H]1OC(=O)C[C@@H](O)[C@H](C)[C@@H](O[C@@H]2O[C@H](C)[C@@H](O[C@H]3C[C@@](C)(O)[C@@H](O)[C@H](C)O3)[C@H](N(C)C)[C@H]2O)[C@@H](CC=O)C[C@@H](C)C(=O)/C=C/C(C)=C/[C@@H]1CO[C@@H]1O[C@H](C)[C@@H](O)[C@@H](OC)[C@H]1OC [tylosin] | 100-1,000 parts of water | – |
